Where no end group is shown, it is not given here. The star is where a group is joined. Biotin = O=C1N[C@H]2[C@H](CS[C@H]2CCCCC(=O)*)N1
Key:
[1] = test system: murine bone marrow-derived dendritic cells (BM-DCs); assay: Cytokine/chemokine secretion by murine bone marrow-derived dendritic cells (ELISA); format: cell-based, mouse; parameters: key to TNFα secretion / IL-18 secretion / IL-8 secretion / IL-10 secretion / IL-2 secretion / IL-1β secretion / IL-5 secretion / IL-6 secretion / IL-12 secretion: “+” indicates an increase; “−” indicates no change relative to untreated cells (medium); details: for secretion of IL-12 (p70): FIGS. 2B, 2H; for secretion of IL-1β: FIG. 2A; for secretion of IL-2: FIG. 2C; for secretion of IL-5: FIG. 2E
Description: Bone marrow-derived DCs (BM-DCs) were generated using modifications of the original method described by Inaba, et al. (J. Exp. Med. 1 76:1693-1702 (1992)). In brief, bone marrow suspensions were incubated with red cell lysis buffer (PUREGENE™ RBC Lysis Solution, Gentra Systems, Minneapolis, Minn.) to remove red blood cells. After washing in media, lymphocytes and Ia-positive cells were killed with a cocktail of monoclonal antibodies (mAbs) and rabbit complement for 60 min at 37° C. The mAbs that were used were GK1.5 anti-CD4, TIB211 anti-CD8, TIB 120 anti-Ia, and TIB 146 anti B220 (these mAbs were kindly provided by Dr. Ralph Steinman). The cells were subsequently cultured in media containing 5% FCS and 10 ng/ml recombinant mouse GM-CSF (R&D Systems, Minneapolis, Minn.) for 7 days. For some experiments, the cells were further purified at day 7 using CD11c^+-microbeads (Miltenyi Biotech., Auburn, Calif.), according to the manufacturer's instructions.
(§1) Recombinant HMGB1-B box domain (HMGB1-Bx) was expressed in Escherichia coli and purified as described by Li, et al. (Mol. Med. 9:37-45; J. Immunol. Methods 289:211-223 (2004)). Purified HMGB1-Bx contained trace amounts of LPS (19 pg LPS/μg HMGB1-Bx) as measured by the chromogenic Limulus amebocyte lysate assay (BioWhittacker Inc, Walkersville, Md.). All experiments using HMGB1-Bx, as well as the HMGB1 peptides, were performed in the presence of polymyxin B (200 U/ml) to neutralize the amount of contaminating LPS in the HMGB1-Bx and peptide preparations. We have previously shown that the DC stimulatory capacity of HMGB1-Bx requires an intact tertiary structure and is not due to contaminating amounts of LPS, as trypsinization abolished HMGB1-Bx activity (Messmer, et al., J. Immunol. 173: 307-313 (2004); the entire teachings of which are incorporated herein by reference).
(§2) Secreted cytokine/chemokine levels were measured by ELISA (Pierce Boston Technology Center, SearchLight™ Proteome Arrays Multiplex Sample Testing Services, Woburn, Mass.) 48 h after addition of the various peptides. Polymyxin B (200 U/ml) was added to all cultures, except those containing LPS, before the stimuli were added. Immature monocyte-derived human dendritic cells (DCs) and immature bone-marrow derived murine dendritic cells (BM-DCs) were cultured either in the presence of HMGB1 peptides (200 μg/ml), whose sequences map to different regions of the HMGB1 protein (see Table 1), the entire HMGB1 B-box domain (HMGB1-Bx) (50 μg/ml), or LPS (100 ng/ml). Untreated cells (medium) were tested as a control. Each peptide was named according to the corresponding position of its first amino acid within the full-length HMGB1 sequence. All peptides were N-terminally biotinylated except “Hp-106 (non bio)”.

[2] = test system: human immature monocyte-derived dendritic cells (DCs); assay: Cytokine/chemokine secretion by human immature monocyte-derived dendritic cells (ELISA); format: cell-based; parameters: key to TNFα secretion / IL-18 secretion / IL-8 secretion / IL-10 secretion / IL-6 secretion / IL-12 secretion: “+” indicates an increase; “−” indicates no change relative to untreated cells (medium); details: for secretion of IL-6 by DCs / cytokine secretion by human DCs / secretion of IL-12 (p70) / secretion of TNF-α / secretion of IL-18 / secretion of IL-8: human DCs; for secretion of IL-6 by DCs: FIGS. 1A, 1B; for secretion of IL-6 by DCs / IL-6 secretion / IL-8 secretion / IL-10 secretion / IL-12 secretion / IL-18 secretion / TNFα secretion / secretion of IL-12 (p70) / secretion of TNF-α / secretion of IL-18 / secretion of IL-8: peptides 200 μg/ml; for secretion of IL-6 by DCs / secretion of IL-12 (p70) / secretion of TNF-α / secretion of IL-18 / secretion of IL-8: 48 h; for IL-6 secretion / IL-8 secretion / IL-10 secretion / IL-12 secretion / IL-18 secretion / TNFα secretion: HUMAN DC, ELISA 48 h after exposure, relative to untreated cells; for IL-6 secretion / IL-8 secretion / IL-10 secretion / IL-12 secretion / IL-18 secretion / TNFα secretion / secretion of IL-18 / secretion of IL-8: HMGB1-Bx 50 μg/ml; for secretion of IL-12 (p70): FIG. 1C; for secretion of TNF-α: FIG. 1D; for secretion of IL-18: FIG. 1E; for secretion of IL-8: FIG. 1F
Description: Peripheral blood mononuclear cells (PBMCs) were isolated from the blood of normal volunteers (Long Island Blood Services, Melville, N.Y.) over a Ficoll-Hypaque (Amersham Biosciences, Uppsala, Sweden) density gradient. CD14^+ monocytes were isolated from PBMCs by positive selection using anti-CD14 beads (Miltenyi Biotech., Auburn, Calif.), following the manufacturer's instructions. To generate DCs, CD14^+ cells were cultured in RPMI 1640 medium supplemented with 2 mM L-glutamine (GIBCO-BRL Life Technologies, Grand Island, N.Y.), 50 μM 2-mercaptoethanol (Sigma, St. Louis, Mo.), 10 mM HEPES (GIBCO-BRL), penicillin (100 U/ml), streptomycin (100 μg/ml) (GIBCO-BRL), and 5% human AB serum (Gemini Bio-Products, Woodland, Calif.). Cultures were maintained for 7 days in 6-well trays (3×10^6 cells/well) supplemented with 1000 U GM-CSF per ml (Immunex, Seattle, Wash.) and 200 U IL-4 per ml (R&D Systems, Minneapolis, Minn.) at days 0, 2, 4 and 6.
as §1, §2

[3] = test system: allogeneic T cells co-cultured with BM-DCs; assay: Functional maturation of BM-DCs: allogeneic T cell proliferation in mixed lymphocyte reaction (3H-thymidine); format: cell-based, mouse; details: BM-DCs from C57/BL6 mice exposed 48 h; peptide 200 μg/ml, HMGB1-Bx 50 μg/ml; DC:T cell ratio 1:120, 5 days; FIG. 4A
Description: Immature BM-DCs that were generated from C57/BL6 mice (FIG. 4A) or Balb/c mice (FIG. 4B) were incubated for 48 h with either HMGB1-Bx (50 μg/ml), a particular HMGB1 peptide (200 μg/ml), LPS (100 ng/ml) or were left untreated (medium). T cells were isolated by negative selection using the mouse SpinSep antibody cocktail from StemCell Technologies (Vancouver, Calif.), according to the manufacturer's instructions. The cell purity of the isolated T cells was routinely ˜99% pure. In order to assess levels of T cell activation and proliferation, cells were plated at 10^5 cells per well in a round-bottomed 96-well tray at a DC:T cell ratio of 1:120 for 5 days in the medium described above. The microcultures were pulsed with (^3H)-thymidine ([…]) for the final 8 h of culture. Cell cultures were harvested onto glass fiber filters with an automated multiple sample harvester and the amount of isotope incorporation was determined by liquid scintillation β-emission. Responses are reported as mean cpm of thymidine incorporation by triplicate cultures (±SEM).

immature BM-DCs = assay: Phenotypic maturation of murine BM-DCs: surface maturation markers by FACS; format: cell-based, mouse; details: CD11c+ gated, mean fluorescence intensity, peptide 200 μg/ml, HMGB1-Bx 50 μg/ml
Description: In order to determine whether HMGB1-Bx and/or particular HMGB1 peptides could induce phenotypic maturation of murine DCs, immature BM-DCs were exposed to either HMGB1-Bx, a particular HMGB1 peptide, or LPS (FIG. 3). Fluorescence activated cell sorting (FACS) analysis was performed on immature DCs that were cultured in the presence of either HMGB1-Bx (50 μg/ml), an HMGB1 peptide (200 μg/ml), or LPS (100 ng/ml). Untreated DCs (medium) were also tested as a control. DCs were gated on CD11c^+ cells and analyzed for expression of specific maturation markers (e.g., CD86, MHC-II, CD40) by surface membrane immunofluorescence. In particular, 1×10^4 DCs were reacted for at least 20 min at 4° C. in […] of PBS/5% FCS/0.1% sodium azide (staining buffer) with fluorescein isothiocyanate (FITC)-conjugated IgG monoclonal antibodies (mAbs) that are specific for CD86, CD40 or MHC-II (eBioscience). Cells were then washed 4 times with staining buffer, fixed in 10% formaldehyde in PBS (pH 7.2-7.4) and examined by flow cytometry using a FACScan (BD Biosciences). In all experiments, isotype controls were included using a FITC-conjugated irrelevant mAb of the same Ig class. Results are depicted as mean fluorescence intensity (MFI).

[4] = murine BM-DCs, peptides 200 μg/ml, HMGB1-Bx 50 μg/ml, 48 h
[5] = MURINE DC, ELISA 48 h after exposure, peptides 200 μg/ml, HMGB1-Bx 50 μg/ml, relative to untreated cells

Sequence	secretion of IL-12 (p70) [1, 4]	secretion of IL-6 by DCs [2]	IL-1β secretion [1, 5]	IL-2 secretion [1, 5]	IL-5 secretion [1, 5]	IL-6 secretion [1, 5]	IL-10 secretion [1, 5]	IL-12 secretion [1, 5]	cytokine secretion by murine BM-DCs ([1]; murine BM-DCs)	secretion of IL-1β [1, 4]	secretion of IL-2 [1, 4]	secretion of IL-5 [1, 4]	IL-6 secretion [2]	IL-8 secretion [2]	IL-10 secretion [2]	IL-12 secretion [2]	IL-18 secretion [2]	TNFα secretion [2]	cytokine secretion by human DCs [2]	secretion of IL-12 (p70) [2]	also measured
CSEYRPKIKGEHPGLSIG [Hp-106 (non bio), Hp-106 peptide that was not biotinylated at its N-terminus]	did not enhance IL-12 secretion	failed to stimulate IL-6 secretion																			
DPNAPKRPPSAFFLFCSE (Biotin-DPNAPKRPPSAFFLFCSE; listed as Homo sapiens) [Hp-91]		enhanced IL-6 secretion	+	+	+	−	−	+	induced cytokine secretion by murine BM-DCs	increased production	increased production	increased production	+	−	−	+	+	+	induced cytokine secretion by human DCs	induced secretion	IL-8 secretion [1, 5]: −; IL-18 secretion [1, 5]: −; TNFα secretion [1, 5]: −; secretion of IL-8 ([1]; murine BM-DCs, FIG. 2D, peptides 200 μg/ml, HMGB1-Bx 50 μg/ml, 48 h): not; secretion of IL-18 ([1]; murine BM-DCs, FIG. 2F, peptides 200 μg/ml, HMGB1-Bx 50 μg/ml, 48 h): not; secretion of TNF-α ([1]; murine BM-DCs, FIG. 2G, peptides 200 μg/ml, HMGB1-Bx 50 μg/ml, 48 h): not; secretion of TNF-α [2]: induced secretion; secretion of IL-18 [2]: induced secretion; secretion of IL-8 [2]: did not induce secretion
HPDASVNFSEFSKKCSER (Biotin-HPDASVNFSEFSKKCSER; listed as Homo sapiens) [Hp-31]	enhanced the production	induced secretion	+	+	+	−	−	+	induced cytokine secretion by murine BM-DCs	enhanced the production	enhanced the production	enhanced the production	+	−	−	+	+	+	induced cytokine secretion by human DCs	induced secretion	secretion of IL-6 ([1]; murine BM-DCs): not; secretion of IL-10 ([1]; murine BM-DCs): not; secretion of TNF-α [2]: induced secretion; secretion of IL-18 [2]: induced secretion; secretion of IL-8 [2]: did not induce secretion
SERWKTMSAKEKGKFEDM (Biotin-SERWKTMSAKEKGKFEDM; listed as Homo sapiens) [Hp-46]		did not induce IL-6 secretion																			proliferation of resting allogeneic T cells (3H thymidine incorporation) [3]: did not show enhanced T cell stimulatory activity
SIGDVAKKLGEMWNNTAA (Biotin-SIGDVAKKLGEMWNNTAA; listed as Homo sapiens) [Hp-121, control peptide]																					proliferation of resting allogeneic T cells (3H thymidine incorporation) [3]: did not show enhanced T cell stimulatory activity; CD86 expression on the surface of BM-DCs (immature BM-DCs; FIG. 3A): No altered expression; MHC-II expression on the surface of BM-DCs (immature BM-DCs; FIG. 3B): No altered expression; CD40 expression on the surface of BM-DCs (immature BM-DCs; FIG. 3C): No altered expression

Source: patent US8354106B2, “Antibodies against HMGB1 and fragments thereof” (The Feinstein Institute for Medical Research, priority 2005, dated 2013)
